target: IRE1α RNase (Homo sapiens (Human), UniProt O75460); assay: Biochemical assay, inhibition of RNase activity of IRE1α; details: not given
Sequence (O75460 468-977): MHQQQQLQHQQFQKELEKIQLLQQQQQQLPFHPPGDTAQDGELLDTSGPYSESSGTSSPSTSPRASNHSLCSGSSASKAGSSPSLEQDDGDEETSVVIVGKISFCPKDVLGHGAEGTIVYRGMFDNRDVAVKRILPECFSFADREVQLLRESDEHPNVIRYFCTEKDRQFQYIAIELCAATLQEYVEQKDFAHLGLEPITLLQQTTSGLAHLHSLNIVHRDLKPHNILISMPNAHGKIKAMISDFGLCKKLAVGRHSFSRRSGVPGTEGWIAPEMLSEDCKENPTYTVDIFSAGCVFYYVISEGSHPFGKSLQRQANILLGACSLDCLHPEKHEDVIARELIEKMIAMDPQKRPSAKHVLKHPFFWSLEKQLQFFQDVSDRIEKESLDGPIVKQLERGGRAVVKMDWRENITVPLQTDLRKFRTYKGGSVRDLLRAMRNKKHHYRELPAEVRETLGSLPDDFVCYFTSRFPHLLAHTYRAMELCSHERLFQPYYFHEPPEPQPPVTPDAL

| IC50 [nM] | Structure (SMILES) |
| --- | --- |
| 6 | CC(C)c1nc(-c2cc(F)c(NS(=O)(=O)c3ccccc3Cl)cc2F)c2c(N)ncc(C3=CCC(NCCF)CC3)n12 (stereo not shown) [Example 228, N-(4-(8-amino-5-(4-((2-fluoroethyl)amino)cyclohex-1-en-1-yl)-3-isopropylimidazo[1,5-a]pyrazin-1-yl)-2,5-difluorophenyl)-2-chlorobenzenesulfonamide] |
| 25 | CC(C)c1nc(-c2ccc(NS(=O)(=O)c3ccccc3F)c(F)c2)c2c(N)ncc(C3=CCC(NCCF)CC3)n12 (stereo not shown) [Example 229, N-(4-(8-amino-5-(4-((2-fluoroethyl)amino)cyclohex-1-en-1-yl)-3-isopropylimidazo[1,5-a]pyrazin-1-yl)-2-fluorophenyl)-2-fluorobenzenesulfonamide] |
| 60 | CC(C)c1nc(-c2ccc(NS(=O)(=O)c3ccccc3Cl)c(F)c2)c2c(N)ncc(C3=CCC(NC4COC4)CC3)n12 (stereo not shown) [Example 232, N-(4-(8-amino-3-isopropyl-5-(4-(oxetan-3-ylamino)cyclohex-1-en-1-yl)imidazo[1,5-a]pyrazin-1-yl)-2-fluorophenyl)-2-chlorobenzenesulfonamide] |
| 213 | CC(C)c1nc(-c2ccc(NS(=O)(=O)c3ccccc3Cl)c(F)c2)c2c(N)ncc(C3=CCC(NCC(F)F)CC3)n12 (stereo not shown) [Example 226, N-(4-(8-amino-5-(4-((2,2-difluoroethyl)amino)cyclohex-1-en-1-yl)-3-isopropylimidazo[1,5-a]pyrazin-1-yl)-2-fluorophenyl)-2-chlorobenzenesulfonamide] |

tested on: XBP-1 splicing in ARPE-19 cells or apoptosis of INS-1 cells expressing mIRE-1; assay: Cellular assay (XBP1 splicing assay or apoptosis assay); format: cell-based; details: data are for the XBP1 splicing assay or the apoptosis assay (not specified per compound)
Protocol: ARPE-19 cells stably expressing XBP-1 (a.a. 1-376) with nano-luciferase gene sequence linked so it is in frame when XBP-1 is spliced, were cultured in F12 media, 10% FBS, 0.044% sodium bicarbonate, 150 μg/ml hygromycin B and seeded for assays at 5,000 cells in 384 well plates in culture media without hygromycin B and incubated at 37° C./5% CO2. […] After further incubation of 30 minutes thapsigargin was added (final concentration 150 nM) and then another 4 hour incubation. A NanoLuc luciferase assay (Promega) was used according to the manufacturer's instructions to detect the luciferase and luminescence measured on a luminometer (EnVision, PerkinElmer).
Doxycycline (final concentration 100 nM) was added and plates incubated for a further 72 hours. To determine the proportion of apoptotic cells Hoechst 33342 (final concentration 10 μg/mL) was added, then after 30 minutes incubation cells imaged and analyzed on an InCell high content imager.

| Structure (SMILES) | IC50 [nM] |
| --- | --- |
| CC(C)c1nc(-c2cc(F)c(NS(=O)(=O)c3ccccc3Cl)cc2F)c2c(N)ncc(C3=CCC(NCCF)CC3)n12 (stereo not shown) [Example 228, N-(4-(8-amino-5-(4-((2-fluoroethyl)amino)cyclohex-1-en-1-yl)-3-isopropylimidazo[1,5-a]pyrazin-1-yl)-2,5-difluorophenyl)-2-chlorobenzenesulfonamide] | 10 |
| CNC1CC=C(c2cnc(N)c3c(-c4ccc(Cc5ncc(-c6ccccc6)[nH]5)c5ccccc45)nc(C(C)C)n23)CC1 (stereo not shown) [Example 168, 3-Isopropyl-5-(4-(methylamino)cyclohex-1-en-1-yl)-1-(4-((5-phenyl-1H-imidazol-2-yl)methyl)naphthalen-1-yl)imidazo[1,5-a]pyrazin-8-amine] | 96 |
| CCc1nc(-c2ccc(NC(=O)Nc3cccc(F)c3)cc2F)c2c(N)ncc(C3=CCC(NC)CC3)n12 (stereo not shown) [Example 126, 1-(4-(8-amino-3-ethyl-5-(4-(methylamino)cyclohex-1-en-1-yl)imidazo[1,5-a]pyrazin-1-yl)-3-fluorophenyl)-3-(3-fluorophenyl)urea] | 450 |
| CNC1CC=C(c2cnc(N)c3c(-c4ccc(CC(=O)Nc5cncc(OC)c5)c5ccccc45)nc(C(C)C)n23)CC1 (stereo not shown) [Example 69, 2-(4-(8-amino-3-isopropyl-5-(4-(methylamino)cyclohex-1-en-1-yl)imidazo[1,5-a]pyrazin-1-yl)naphthalen-1-yl)-N-(5-methoxypyridin-3-yl)acetamide] | 350 |
| CNC1CC=C(c2cnc(N)c3c(-c4ccc(NC(=O)Nc5ccccc5)cc4F)nc(C(C)C)n23)CC1 (stereo not shown) [Example 130, 1-(4-(8-amino-3-isopropyl-5-(4-(methylamino)cyclohex-1-en-1-yl)imidazo[1,5-a]pyrazin-1-yl)-3-fluorophenyl)-3-phenylurea] | 410 |
| CNC1CC=C(c2cnc(N)c3c(-c4ccc(NC(=O)Nc5cccc(F)c5)cc4F)nc(C(C)C)n23)CC1 (stereo not shown) [Example 129, 1-(4-(8-amino-3-isopropyl-5-(4-(methylamino)cyclohex-1-en-1-yl)imidazo[1,5-a]pyrazin-1-yl)-3-fluorophenyl)-3-(3-fluorophenyl)urea] | 280 |
| CC(C)c1nc(-c2ccc(NS(=O)(=O)Cc3ccccc3Cl)c(F)c2)c2c(N)ncc(C3=CCC(O)CC3)n12 (stereo not shown) [Example 224, N-(4-(8-amino-5-(4-hydroxycyclohex-1-en-1-yl)-3-isopropylimidazo[1,5-a]pyrazin-1-yl)-2-fluorophenyl)-1-(2-chlorophenyl)methanesulfonamide] | 42 |
| CNC1CC=C(c2cnc(N)c3c(-c4cccc5c(NC(=O)Nc6cccc(F)c6)cccc45)nc(C(C)C)n23)CC1 (stereo not shown) [Example 123, 1-(5-(8-amino-3-isopropyl-5-(4-(methylamino)cyclohex-1-en-1-yl)imidazo[1,5-a]pyrazin-1-yl)naphthalen-1-yl)-3-(3-fluorophenyl)urea] | 230 |
| Cc1nc(-c2ccc(NC(=O)Nc3cccc(C(F)(F)F)c3)c3ccccc23)c2c(N)ncc(C3CCCNC3)n12 (stereo not shown) [Example 40, 3-{4-[8-amino-3-methyl-5-(piperidin-3-yl)imidazo[1,5-a]pyrazin-1-yl]naphthalen-1-yl}-1-[3-(trifluoromethyl)phenyl]urea] | 280 |
| CC(C)c1nc(-c2ccc(NS(=O)(=O)c3ccccc3F)c(F)c2)c2c(N)ncc(C3=CCC(NCCF)CC3)n12 (stereo not shown) [Example 229, N-(4-(8-amino-5-(4-((2-fluoroethyl)amino)cyclohex-1-en-1-yl)-3-isopropylimidazo[1,5-a]pyrazin-1-yl)-2-fluorophenyl)-2-fluorobenzenesulfonamide] | 25 |
| CNC1CC=C(c2cnc(N)c3c(-c4ccc(CC(=O)Nc5cc(F)cc(C#N)c5)c5ccccc45)nc(C(C)C)n23)CC1 (stereo not shown) [Example 67, 2-(4-(8-amino-3-isopropyl-5-(4-(methylamino)cyclohex-1-en-1-yl)imidazo[1,5-a]pyrazin-1-yl)naphthalen-1-yl)-N-(3-cyano-5-fluorophenyl)acetamide] | 210 |
| CNC1CC=C(c2cnc(N)c3c(-c4ccc(NC(=O)Nc5cncc(OC)c5)cc4F)nc(C(C)C)n23)CC1 (stereo not shown) [Example 148, 1-(4-(8-amino-3-isopropyl-5-(4-(methylamino)cyclohex-1-en-1-yl)imidazo[1,5-a]pyrazin-1-yl)-3-fluorophenyl)-3-(5-methoxypyridin-3-yl)urea] | 1300 |
| CNC1CC=C(c2cncc3c(-c4ccc(NC(=O)Nc5ccccc5)c5ccccc45)nc(C(C)C)n23)CC1 (stereo not shown) [Example 155, 1-(4-(3-isopropyl-5-(4-(methylamino)cyclohex-1-en-1-yl)imidazo[1,5-a]pyrazin-1-yl)naphthalen-1-yl)-3-phenylurea] | 640 |
| CNC1CC=C(c2cnc(N)c3c(-c4ccc(NC(=O)Nc5cc(F)cc(F)c5)c5ccccc45)nc(C(C)C)n23)CC1 (stereo not shown) [Example 151, 1-(4-(8-amino-3-isopropyl-5-(4-(methylamino)cyclohex-1-en-1-yl)imidazo[1,5-a]pyrazin-1-yl)naphthalen-1-yl)-3-(3,5-difluorophenyl)urea] | 60 |
| Cc1nc(-c2ccc(NS(=O)(=O)c3ccccc3Cl)c(F)c2)c2c(N)ncc(C3=CCC(NCCF)CC3)n12 (stereo not shown) [Example 231, N-(4-(8-amino-5-(4-((2-fluoroethyl)amino)cyclohex-1-en-1-yl)-3-methylimidazo[1,5-a]pyrazin-1-yl)-2-fluorophenyl)-2-chlorobenzenesulfonamide] | 19 |
| CC(C)c1nc(-c2ccc(NS(=O)(=O)c3ccccc3Cl)c(F)c2)c2c(N)ncc(C3=CCC(NC4COC4)CC3)n12 (stereo not shown) [Example 232, N-(4-(8-amino-3-isopropyl-5-(4-(oxetan-3-ylamino)cyclohex-1-en-1-yl)imidazo[1,5-a]pyrazin-1-yl)-2-fluorophenyl)-2-chlorobenzenesulfonamide] | 200 |
| CNC1CC=C(c2cnc(N)c3c(-c4ccc(NC(=O)Nc5ccc(F)cc5)c5ccccc45)nc(C(C)C)n23)CC1 (stereo not shown) [Example 145, 1-(4-(8-amino-3-isopropyl-5-(4-(methylamino)cyclohex-1-en-1-yl)imidazo[1,5-a]pyrazin-1-yl)naphthalen-1-yl)-3-(4-fluorophenyl)urea] | 74 |
| CNC1CC=C(c2cnc(N)c3c(-c4ccc(NS(=O)(=O)c5cc(C)ccc5F)c5ccccc45)nc(C(C)C)n23)CC1 (stereo not shown) [Example 185, N-(4-(8-amino-3-isopropyl-5-(4-(methylamino)cyclohex-1-en-1-yl)imidazo[1,5-a]pyrazin-1-yl)naphthalen-1-yl)-2-fluoro-5-methylbenzenesulfonamide] | 210 |
| CC(C)c1nc(-c2ccc(NS(=O)(=O)c3ccccc3Cl)c(F)c2)c2c(N)ncc(C3=CCC(NCC(F)F)CC3)n12 (stereo not shown) [Example 226, N-(4-(8-amino-5-(4-((2,2-difluoroethyl)amino)cyclohex-1-en-1-yl)-3-isopropylimidazo[1,5-a]pyrazin-1-yl)-2-fluorophenyl)-2-chlorobenzenesulfonamide] | 330 |
| CC(C)c1nc(-c2ccc(NS(=O)(=O)Cc3ccccc3Cl)c(F)c2)c2c(N)ncc(C3=CCC(NCCF)CC3)n12 (stereo not shown) [Example 220, N-(4-(8-amino-5-(4-((2-fluoroethyl)amino)cyclohex-1-en-1-yl)-3-isopropylimidazo[1,5-a]pyrazin-1-yl)-2-fluorophenyl)-1-(2-chlorophenyl) methanesulfonamide] | 50 |
| CNC1CC=C(c2cnc(N)c3c(-c4ccc(CC(=O)Nc5cccc(OC)c5)c5ccccc45)nc(C(C)C)n23)CC1 (stereo not shown) [Example 71, 2-(4-(8-amino-3-isopropyl-5-(4-(methylamino)cyclohex-1-en-1-yl)imidazo[1,5-a]pyrazin-1-yl)naphthalen-1-yl)-N-(3-methoxyphenyl)acetamide] | 62 |
| CNC1CC=C(c2cnc(N)c3c(-c4ccc(CC(=O)Nc5cccc(C#N)c5)c5ccccc45)nc(C(C)C)n23)CC1 (stereo not shown) [Example 70, 2-(4-(8-amino-3-isopropyl-5-(4-(methylamino)cyclohex-1-en-1-yl)imidazo[1,5-a]pyrazin-1-yl)naphthalen-1-yl)-N-(3-cyanophenyl)acetamide] | 140 |
| CNC1CC=C(c2cnc(N)c3c(-c4cccc5c(CC(=O)Nc6cccc(F)c6)cccc45)nc(C(C)C)n23)CC1 (stereo not shown) [Example 81, 2-(5-(8-amino-3-isopropyl-5-(4-(methylamino)cyclohex-1-en-1-yl)imidazo[1,5-a]pyrazin-1-yl)naphthalen-1-yl)-N-(3-fluorophenyl)acetamide] | 290 |
| CNC1CC=C(c2cnc(N)c3c(-c4ccc(NC(=O)NCc5ccccc5)c5ccccc45)nc(C(C)C)n23)CC1 (stereo not shown) [Example 139, 1-(4-(8-amino-3-isopropyl-5-(4-(methylamino)cyclohex-1-en-1-yl)imidazo[1,5-a]pyrazin-1-yl)naphthalen-1-yl)-3-benzylurea] | 380 |

Source: patent US11649237B2, “Substituted imidazo[1,5-a]pyrazines for IRE1 inhibition” (Optikira LLC, priority 2017, dated 2023)
